Results: article PMC8308845, “Discovery of Novel Chemical Series of OXA-48 β-Lactamase Inhibitors by High-Throughput Screening” (Pharmaceuticals, 2021)
“And” between values parts separate entries of the source, which are not always exact repeats. Identical values can stand only once.

What was measured:
[1] = biological target: T1, OXA-48 (Klebsiella pneumoniae, UniProt Q6XEC0); assay: OXA-48 primary enzymatic assay (nitrocefin substrate, fluorescence-quenching readout); assay type: biochemical; settings: dose–response, median of triplicate wells; 15 min preincubation, 25 µM nitrocefin
T1 construct: made in house; host or cells: E. coli BL21(DE3), T7 expression system
Method: After an initial pilot run (three plates, consisting of 960 randomly selected compounds), the primary screening of the subset plates was carried out at 20 µM in single point against OXA-48 enzyme in a nitrocefin-based assay, using the fluorescence-quenching readout. This enzymatic assay employs the cephalosporin nitrocefin as OXA-48 substrate and takes advantage of the fluorescent properties of white microtiter plates. Chromogenic nitrocefin is hydrolyzed by β-lactamases to yield a product with increased absorbance properties (~495 nm) that quenches the plate fluorescence by absorbing the plate’s emission light. In this assay, test compounds that inhibit OXA-48 catalytic activity are predicted to reduce nitrocefin quenching of plate fluorescence, resulting in a quantitative increase in well fluorescence (ON-system for inhibitors). The nitrocefin-based epi-absorbance readout system has been successfully applied in HTS campaigns on other β-lactamases, such as IMP-1 and VIM-2, with the identification of inhibitors belonging to novel scaffolds displaying a favourable degree of selectivity and sub-micromolar potency.
The screening results were expressed as activity percent. […] Overall, the primary assay robustness was good, with Robust Z Prime factor (RZ′) equal to 0.86.
In total, 256 active molecules (125 from the subset and 131 from the full set) were then assayed in dose–response at eight concentrations from 60 to 0.002 µM with interplate triplicate data points.
The blaOXA gene coding for the OXA-48 ß-lactamase, originally cloned from the K. pneumonia 11978 (a clinical isolate from Istanbul Faculty Hospital, Istanbul, Turkey) was overexpressed via a T7 expression system in E. coli BL21(DE3), and its product, native protein, (final yield of 30 mg/L of culture) was subjected to several purification steps, including ion-exchange chromatography with Q-Sepharose and 20 mM Tris-HCl buffer (pH 9.0), followed by chromatography with S-Sepharose columns and 100 mM sodium phosphate buffer (pH 5.8). Elution of the beta-lactamase was performed with a K2SO4 gradient. Peaks of beta-lactamase activity were concentrated and were dialyzed with 100 mM phosphate buffer (pH 7.0). The OXA-48 enzyme was purified to homogeneity (with a degree of purity around 95.4%.)-as measured by 12% SDS PAGE [23]. OXA-48 protein stock solution (2 mg/mL) was finally prepared in 20 mM Hepes (pH 8,1). OXA-48 β-lactamase specific activity was measured by following the hydrolysis of 100 μM nitrocefin (ε: 17,000 M-1 cm^−1 at 482 nm; Δε: 15,000 M-1 cm^−1 at 482 nm) and corresponding to 60.45 μmoles min^−1 mg^−1 of OXA-48 (kcat = 28.85 s^−1) enzyme. A MW of 28,147 g/mol, calculated from the enzyme sequence was confirmed by MALDI-TOF analysis with a Mass error of ± 2.8 Da.
The primary assay was developed to monitor the enzymatic activity of OXA-48 taking advantage of the spectroscopic properties of white microtiter plates (Optiplate-384, PerkinElmer, #6007290), as indicated by Zuck et al.. Nitrocefin is chromogenic substrate for beta-lactamases with λmax = 395 nm (yellow). Upon hydrolysis by OXA-48, nitrocefin yields (2R)-2-[(R)-carboxy[2-(thiophen-2-yl)acetamido]methyl]-5-[(E)-2-(2,4-dinitrophenyl)ethenyl]-3,6-dihydro-2H-1,3-thiazine-4-carboxylic acid, with increased absorbance properties at λmax = 495 nm. Spectroscopic features of the reaction product are exploited to quench the plate intrinsic fluorescence by absorbing the plate’s emission light, which can be monitored by exciting the reaction at 485 nm and recording the emission at 520 nm. Therefore, the primary assay for HTS was an ON-assay, in which compounds targeting OXA-48 were predicted to elicit an increase of the fluorescence signal.
The primary assay was performed in reaction buffer (20 mM Hepes pH 8.0, 12.5 mM NaCl, 0.005% BSA, 0.0005% Brij-35) in the presence of 0.0014 ng/µL OXA-48 and 25 µM nitrocefin in a final volume of 20 µL/well in 384 MTP format. […]

[2] = system: E. coli ATCC25922; assay: MIC by broth microdilution, antibiotic-sensitive strain; assay type: cell-based; settings: Escherichia coli, no β-lactam, BLI tested at 32 µg/mL, read-out: MIC, BLI alone
Excerpt: (§1) To evaluate the capability of restoring β-lactam susceptibility, the two most promising representatives of SC_2 (ID3) and SC_7 (ID2) were screened alone and in combination with ampicillin (AMP) and IMP against sensitive and resistant Gram-negative bacteria. Avibactam and tazobactam were also included in the MIC characterization as BLI reference compounds. Specifically, we used E. coli ATCC25922 as antibiotic-sensitive strain, while E. coli ATCC BAA-2523 and K. pneumoniae ATCC BAA-2524 as β-lactam-resistant bacteria, producing OXA-48 carbapenemase.
(§2) Test compounds and tazobactam were tested at 32 µg/mL, while avibactam was applied at 4 µg/mL. […] Both antibiotics were selected for the combination study as they can be hydrolyzed by the target OXA-48 enzyme.
(§3) MIC values were determined by the broth dilution method and interpreted using published guidelines described by Clinical and Laboratory Standards Institute (CLSI).
(§4) All BLIs were dissolved in 100% DMSO and they were tested at a fixed concentration of 32 µg/mL and 1% of DMSO final concentration. Avibactam was used as reference β-lactamase inhibitor. All antimicrobials were prepared in line with CLSI susceptibility testing standards. AMP (USP # 1033000; batch no. K1M493) was dissolved at 5.12 mg/mL, IMP (USP # 1337809; batch no. R038R0) and avibactam (Biochem # NXL 104; batch no. 20180726) were dissolved at 1.28 mg/mL in the respective solvents recommended by CLSI (2). Solutions at 4X the final concentrations of the test range were made in Cation adjusted Mueller-Hinton broth (CA-MHB, BD # 212322; batch no. 6117994; Expiry date: 29.02.2020) by serial dilutions, and then diluted 2-fold with CA-MHB (for antimicrobials alone), or with the BLIs/avibactam (for combinations of new/reference inhibitors and antimicrobials). Moreover, all BLIs were tested alone at a fixed concentration of 32 μg/mL. The final concentration of DMSO in the test tubes was 1% for each different combination.
(§5) 50 μL of each well were then transferred from the masterblock into 96-well plates to whom were then added 50 μL of the final inoculum. MIC tests were performed by broth microdilution in line with CLSI susceptibility testing standards. Bacterial inocula were prepared at ca. 1 × 10^6 CFU/mL by diluting 100-fold a 0.5 McFarland suspension in CA-MHB with TES (TREK Diagnostic Systems, Product code: T3462; Batch: 356347; Expiry date: 12-Jun-2019). 50 μL of antibacterial solutions at 2 × the final concentrations were diluted 2-fold with 50 μL of inoculum to give a final inoculum of ca. 5 × 10^5 CFU/mL and desired test concentrations of antibacterial agents. Test plates were incubated according to CLSI guidelines and read visually. MIC values corresponded to the first well with no visible growth.

[3] = system: E. coli ATCC BAA-2523; assay: MIC by broth microdilution, β-lactam-resistant strain producing OXA-48; assay type: cell-based, Escherichia coli; settings: Escherichia coli, ATCCBAA2523, no β-lactam, BLI tested at 32 µg/mL, read-out: MIC, BLI alone
Excerpt: as §1, §2, §3, §4, §5

[4] = system: K. pneumoniae ATCC BAA-2524; assay: as above; assay type: cell-based, Klebsiella pneumoniae; settings: Klebsiella pneumoniae, ATCCBAA2524, no β-lactam, BLI tested at 32 µg/mL, read-out: MIC, BLI alone
Excerpt: as §1, §2, §3, §4, §5

T1 sequence (Q6XEC0 23-265, looked up): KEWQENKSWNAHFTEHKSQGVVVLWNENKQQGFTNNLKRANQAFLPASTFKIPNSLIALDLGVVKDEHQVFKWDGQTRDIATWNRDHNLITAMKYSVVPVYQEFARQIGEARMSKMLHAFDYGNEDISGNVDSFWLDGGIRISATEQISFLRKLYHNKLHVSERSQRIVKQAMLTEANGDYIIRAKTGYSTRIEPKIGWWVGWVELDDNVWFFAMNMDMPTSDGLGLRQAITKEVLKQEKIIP

AC50 [1]: 723 nM and 720 nM
MIC [2]: > 32 µg/mL
MIC [3]: > 32 µg/mL
MIC [4]: > 32 µg/mL
SMILES: O=C(O)c1ccc(/C=N/n2c(S)nnc2-c2ccc(Cl)cc2)cc1 [ID3]
